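The compound was tested at five concentrations on cells cultured in 96-well plates, with a 48-hour exposure period. The concentration for 50% growth inhibition is given as GI50.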 Active and inactive are the calls of the source. Rule as the data show it: active = GI50 up to about 1.1 µM and inactive = higher.
Columns and labels:
Test in all cases: NCI tumour cell line growth inhibition, 48 h
[1] = tested on: ACHN
[2] = tested on: SF-295
[3] = tested on: SK-OV-3
[4] = tested on: MOLT-4
[5] = tested on: HCT-116
[6] = tested on: KM12
[7] = tested on: NCI/ADR-RES
[8] = tested on: EKVX
[9] = tested on: OVCAR-8
[10] = tested on: SK-MEL-2
[11] = tested on: HOP-92
[12] = tested on: RXF 393
[13] = tested on: LOX IMVI
[14] = tested on: COLO 205
[15] = tested on: MDA-MB-435
[16] = tested on: SK-MEL-5
[17] = tested on: HCC 2998
[18] = tested on: SF-268
[19] = tested on: Malme-3M

Measured: GI50

CCCCOCn1c(=O)[nH]c(=O)c2ccccc21
inactive: [1] 32.9 µM | [2] > 100 µM | [3] > 100 µM | [4] > 100 µM | [5] > 100 µM | [6] > 100 µM | [7] 22.8 µM | [8] 44.9 µM | [9] 37.5 µM | [10] 91.8 µM | [11] > 100 µM | [12] 48.2 µM | [13] > 100 µM | [14] > 100 µM | [15] > 100 µM | [16] 54.1 µM

OC[C@H]1O[C@@H](Oc2cc(O)cc(/C=C/c3ccc(O)cc3)c2)[C@H](O)[C@@H](O)[C@@H]1O [PICEID]
inactive: [1] > 100 µM | [2] > 100 µM | [3] > 100 µM | [4] > 100 µM | [5] > 100 µM | [6] > 100 µM | [7] > 100 µM | [8] > 100 µM | [9] > 100 µM | [10] > 100 µM | [11] > 100 µM | [12] > 100 µM | [13] > 100 µM | [15] > 100 µM | [16] > 100 µM

ClC1=C(Cl)C2OC3C=CCC3OC2C(Cl)=C1Cl (centres undefined)
inactive: [17] 29.4 µM | [1] 91 µM | [2] > 100 µM | [3] > 100 µM | [4] 35.3 µM | [5] 32.9 µM | [6] 40.6 µM | [18] 73.5 µM | [7] 53.6 µM | [8] 44.1 µM | [9] > 100 µM | [10] 18.8 µM | [11] 28.8 µM | [12] 28.4 µM | [13] 52 µM | [15] 56.9 µM | [16] 29.5 µM

Cc1ccccc1/N=N/c1c(O)ccc2ccccc12
inactive: [1] > 100 µM | [2] 77.1 µM | [3] > 100 µM | [19] > 100 µM | [4] > 100 µM | [5] 69.5 µM | [6] 16.4 µM | [18] 62.4 µM | [7] > 100 µM | [8] 47.6 µM | [9] > 100 µM | [10] > 100 µM | [11] > 100 µM | [12] > 100 µM | [13] 40.5 µM | [14] > 100 µM | [15] > 100 µM | [16] > 100 µM

C[N+](C)(C)CC1CCCc2ccccc2C1=O (centres undefined)
inactive: [17] 20.6 µM | [1] 5.02 µM | [2] > 40.5 µM | [3] 20.3 µM | [19] 5.79 µM | [4] 2.48 µM | [5] 1.87 µM | [6] 9.86 µM | [18] 22 µM | [7] 7.06 µM | [8] 6.46 µM | [9] 8.28 µM | [10] 10.5 µM | [11] 13.2 µM | [12] 6.28 µM | [14] 22 µM | [15] 5.89 µM | [16] 6.59 µM

COC(=O)C1=C(C(=O)OC)SC(=C2SC3=C(SC(=C4SCCS4)S3)S2)S1
inactive: [1] > 100 µM | [2] > 100 µM | [3] > 100 µM | [19] > 100 µM | [4] > 100 µM | [5] > 100 µM | [6] > 100 µM | [18] > 100 µM | [7] > 100 µM | [8] > 100 µM | [9] > 100 µM | [10] > 100 µM | [11] > 100 µM | [12] > 100 µM | [13] > 100 µM | [14] > 100 µM | [15] > 100 µM | [16] > 100 µM

Cn1nc2ccc(Nc3cc(=O)[nH]c4ccc5nn(C)nc5c34)cc2n1
inactive: [17] > 100 µM | [1] > 100 µM | [2] > 100 µM | [3] > 100 µM | [19] > 100 µM | [4] 82.2 µM | [5] > 100 µM | [6] > 100 µM | [18] > 100 µM | [7] > 100 µM | [8] > 100 µM | [9] > 100 µM | [10] > 100 µM | [11] > 100 µM | [12] > 100 µM | [14] > 100 µM | [15] > 100 µM | [16] > 100 µM

Cc1nn2c(C(=O)N/N=C/c3ccccc3O)c(C)nc2s1
inactive: [17] 55.1 µM | [1] 56.1 µM | [2] 85.9 µM | [19] > 100 µM | [4] 51.9 µM | [5] 51.6 µM | [6] > 100 µM | [18] > 100 µM | [7] 61.4 µM | [8] > 100 µM | [9] > 100 µM | [11] > 100 µM | [12] > 100 µM | [13] > 100 µM | [14] 59.2 µM | [15] > 100 µM | [16] 60.3 µM

CN1CCN(/C(N)=C(\C#N)C(=O)Nc2ccc(Cl)cc2)CC1
inactive: [17] 59.6 µM | [1] > 100 µM | [2] 75.7 µM | [3] > 100 µM | [4] 54.8 µM | [5] 41.6 µM | [6] 59 µM | [7] 87.9 µM | [8] 78.2 µM | [9] > 100 µM | [10] 32.7 µM | [11] > 100 µM | [13] 47.9 µM | [14] 18.7 µM | [15] 37.5 µM | [16] 27.5 µM

COC(=O)c1c2c(cc3c1CC1(Cc4ccccc4C1)C3)CCC2
inactive: [17] 33.1 µM | [1] 23.8 µM | [2] 24.5 µM | [3] 31.4 µM | [19] 20.2 µM | [4] 17.1 µM | [5] 21.7 µM | [6] 13 µM | [18] 36.6 µM | [7] 22.2 µM | [8] 25.6 µM | [9] 35.2 µM | [11] 36.9 µM | [12] 16.9 µM | [13] 15.9 µM | [14] 16.6 µM | [15] 8.91 µM | [16] 13.5 µM

NNC(=O)c1cc(=O)[nH][nH]1
inactive: [1] > 100 µM | [2] > 100 µM | [3] > 100 µM | [19] > 100 µM | [4] > 100 µM | [5] > 100 µM | [6] > 100 µM | [18] > 100 µM | [7] > 100 µM | [8] > 100 µM | [9] > 100 µM | [10] > 100 µM | [11] > 100 µM | [12] > 100 µM | [14] > 100 µM | [15] > 100 µM | [16] > 100 µM

CC1CCCC2(CC[N+](C)(CCC[N+](C)(C)C)CC2)C1 (centres undefined)
inactive: [1] > 100 µM | [2] > 100 µM | [3] > 100 µM | [19] > 100 µM | [4] > 100 µM | [5] > 100 µM | [6] > 100 µM | [18] > 100 µM | [7] > 100 µM | [8] > 100 µM | [9] > 100 µM | [10] > 100 µM | [11] > 100 µM | [12] > 100 µM | [13] > 100 µM | [14] > 100 µM | [15] > 100 µM | [16] > 100 µM

O=C(N/N=C/c1ccco1)c1cc(I)cc(I)c1O
inactive: [1] 22 µM | [19] 22.2 µM | [4] 26.3 µM | [5] 23.5 µM | [18] > 50 µM | [7] 20.7 µM | [8] 12.4 µM | [9] 19.4 µM | [10] 5.22 µM | [11] 15.6 µM | [12] 20.7 µM | [13] 16.4 µM | [14] 3.02 µM | [15] 16.9 µM | [16] 12.4 µM

CCC(NC(C)c1ccccc1)C(=O)c1ccc(OCc2ccccc2)c(OCc2ccccc2)c1 (centres undefined)
inactive: [17] > 100 µM | [1] > 100 µM | [2] > 100 µM | [3] > 100 µM | [19] > 100 µM | [5] > 100 µM | [6] > 100 µM | [18] > 100 µM | [7] > 100 µM | [8] > 100 µM | [9] > 100 µM | [11] > 100 µM | [12] > 100 µM | [13] > 100 µM | [14] > 100 µM | [15] > 100 µM | [16] > 100 µM

NC(=O)NC(=O)CCC(NS(=O)(=O)c1ccccc1)C(=O)NC(N)=O (centres undefined)
inactive: [17] > 100 µM | [1] > 100 µM | [2] > 100 µM | [3] > 100 µM | [19] > 100 µM | [4] > 100 µM | [5] > 100 µM | [6] > 100 µM | [18] > 100 µM | [7] > 100 µM | [8] > 100 µM | [9] > 100 µM | [10] > 100 µM | [11] > 100 µM | [13] > 100 µM | [14] > 100 µM | [15] > 100 µM | [16] > 100 µM

O=S(=O)(O)c1cc(/N=N/c2c(O)ccc3ccccc23)c2c(S(=O)(=O)O)cccc2c1
inactive: [17] > 100 µM | [1] > 100 µM | [2] > 100 µM | [3] > 100 µM | [19] > 100 µM | [4] > 100 µM | [5] > 100 µM | [6] > 100 µM | [18] > 100 µM | [7] > 100 µM | [8] > 100 µM | [9] > 100 µM | [10] > 100 µM | [11] > 100 µM | [12] > 100 µM | [14] > 100 µM | [15] > 100 µM | [16] > 100 µM
